Measurements published in patent publication US20240108747A1, “EXTRACELLULAR VESICLE CONJUGATES AND USES THEREOF” (LONZA SALES AG, priority 2019, published 2024).
Starred links: 1 amine or outer side, 2 acyl side, 3 side chain; linkers in the order of their positions; H or OH if unused. Non-standard residues stand in square brackets, D forms with d. Residues, ends and D or L forms follow the SMILES beside them. *: point of attachment. Dolaproine = CO[C@@H]([C@@H]1CCCN1)[C@@H](C)C(=O)O; Hexanoyl(6-maleimido) = O=C1C=CC(=O)N1CCCCCC(=O)*; Dil = CC[C@H](C)[C@H](NC)[C@@H](CC(=O)O)OC; PABC = O=C(OCc1ccc(N[*:1])cc1)[*:2]; X1 = C[C@@H](N*)[C@@H](O)c1ccccc1; Cit = NC(=O)NCCC[C@H](N)C(=O)O; NMeV = CN[C@H](C(=O)O)C(C)C

Tests used:
mouse LPA-1 = mouse LPA-1 (Mus musculus, UniProt P61793); details: cited from earlier work
recombinant human LPA-1 = recombinant human LPA-1 (Homo sapiens, UniProt Q92633); details: cited from earlier work
mouse LPA-1/CHO cells = details: read-out: IC50, inhibition of LPA-1-induced chemotaxis; cited from earlier work
[1] = tested on: human A2058 melanoma cells; details: read-out: IC50, inhibition of LPA-1-induced chemotaxis; cited from earlier work
[2] = tested on: LPA-induced histamine release; details: mice; cited from earlier work
[3] = cited from earlier work
[4] = Phase 2 study (Palmer 2018); cited from earlier work
NLRC4 inflammasome = details: cited from earlier work
AIM2 inflammasome = details: cited from earlier work
NLRP1 inflammasome = details: cited from earlier work
TLR2 signaling = details: cited from earlier work
NLRP3 = NLRP3 (Sus scrofa, UniProt H2EW08); details: models for myocardial infarction; cited from earlier work
RAW264.7 (RAW) cells = experiment: MMAE cytotoxicity / cell growth on RAW264.7 cells (IncuCyte); format: cell-based, mouse
Protocol: The dose-response effects of MMAE on RAW cell growth are shown in microphotographs (top), and measurements of cells growth (bottom left), and confluence (bottom right).
MMAE cytotoxicity was assessed on RAW264.7 (RAW) cells. RAW cells are a […] macrophage cell line. 10,000 RAW cells were seeded in each well of a 96 well plate, and cell growth was monitored using an IncuCyte instrument to image cells over a period of approximately 5 days. […] Images show cells after 5 days of treatment with the indicated dose of MMAE or DMSO; growth inhibition is evident from the decreased number of cells after treatment with MMAE, while cell death is indicated by the rounding up of cells (evident in the 10, 100, and 300 nM images). MMAE has a steep dose-response curve.

Sequence of NLRP3 (H2EW08 1-1036): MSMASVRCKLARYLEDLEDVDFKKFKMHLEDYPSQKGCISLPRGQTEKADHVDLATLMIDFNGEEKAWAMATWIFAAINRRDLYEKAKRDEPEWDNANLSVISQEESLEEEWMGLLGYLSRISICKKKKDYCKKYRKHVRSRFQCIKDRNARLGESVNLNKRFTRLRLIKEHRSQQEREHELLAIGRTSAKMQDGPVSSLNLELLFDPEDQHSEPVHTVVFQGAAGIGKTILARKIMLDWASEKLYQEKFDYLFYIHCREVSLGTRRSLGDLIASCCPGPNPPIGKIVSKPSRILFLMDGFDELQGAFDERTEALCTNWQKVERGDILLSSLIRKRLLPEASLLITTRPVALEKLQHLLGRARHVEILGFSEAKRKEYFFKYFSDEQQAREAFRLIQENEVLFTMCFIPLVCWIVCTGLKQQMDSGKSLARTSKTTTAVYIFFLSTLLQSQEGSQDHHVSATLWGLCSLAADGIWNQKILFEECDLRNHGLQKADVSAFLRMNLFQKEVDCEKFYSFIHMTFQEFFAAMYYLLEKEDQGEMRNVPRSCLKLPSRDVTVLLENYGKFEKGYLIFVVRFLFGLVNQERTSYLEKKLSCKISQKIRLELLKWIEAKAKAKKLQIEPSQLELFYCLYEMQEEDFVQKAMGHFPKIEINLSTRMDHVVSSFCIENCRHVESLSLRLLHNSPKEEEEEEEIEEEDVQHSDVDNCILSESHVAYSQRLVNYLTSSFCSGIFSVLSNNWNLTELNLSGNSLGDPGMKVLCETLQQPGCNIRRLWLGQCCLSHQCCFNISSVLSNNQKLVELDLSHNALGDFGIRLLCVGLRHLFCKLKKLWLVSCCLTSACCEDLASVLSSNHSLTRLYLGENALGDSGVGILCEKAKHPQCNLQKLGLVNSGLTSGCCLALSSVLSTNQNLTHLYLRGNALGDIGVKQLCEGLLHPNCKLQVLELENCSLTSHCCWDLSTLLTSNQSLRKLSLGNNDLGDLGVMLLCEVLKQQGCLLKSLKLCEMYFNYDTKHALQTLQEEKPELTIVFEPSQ
Sequence of recombinant human LPA-1 (Q92633 whole entry): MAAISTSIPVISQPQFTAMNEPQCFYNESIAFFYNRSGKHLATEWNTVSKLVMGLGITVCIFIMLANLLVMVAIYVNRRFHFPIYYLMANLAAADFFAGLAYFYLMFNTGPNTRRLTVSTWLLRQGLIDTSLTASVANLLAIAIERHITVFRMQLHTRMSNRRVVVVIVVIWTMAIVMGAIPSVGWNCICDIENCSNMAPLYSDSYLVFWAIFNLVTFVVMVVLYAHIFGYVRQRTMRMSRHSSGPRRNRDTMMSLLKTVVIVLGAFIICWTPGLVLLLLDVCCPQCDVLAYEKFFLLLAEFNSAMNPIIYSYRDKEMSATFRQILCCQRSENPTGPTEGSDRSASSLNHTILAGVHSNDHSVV
Sequence of mouse LPA-1 (P61793 whole entry): as the sequence (Q92633 whole entry) above, with I4A, I8S, P22Q, H40Y, I61V, E193D, N194H, I269V, S331N, T335N counted along it

In the case of `Cc1noc(-c2ccc(-c3ccc(CC(=O)O)cc3)cc2)c1NC(=O)O[C@H](C)c1ccccc1` [AM095, 1,1′-Biphenyl]-4-acetic acid, 4′-[3-methyl-4-[[[(1R)-1-phenylethoxy]carbonyl]amino]-S-isoxazolyl[ ]-], the IC50 (mouse LPA-1) is listed as 730 nM, the IC50 (recombinant human LPA-1) is listed as 980 nM and the IC50 (mouse LPA-1/CHO cells) is listed as 780 nM. For the same compound, the IC50 [1] was 230 nM, the “ED50, block of LPA-induced histamine release” value [2] was 8.3 mg/kg and the “ED50, reduction of BALF collagen and protein” value ([3]; in lungs) was 10 mg/kg. For the same compound, the “macrophage and lymphocyte infiltration induced by bleomycin” value ([3]; mice) was “decrease both macrophage and lymphocyte infiltration”.
In the case of `Cc1noc(-c2ccc(-c3ccc(C4(C(=O)O)CC4)cc3)cc2)c1NC(=O)O[C@H](C)c1ccccc1` [AM152, Cyclopropanecarboxylic acid, 1-[4′-[3-methyl-4-[[[(1R)-1-phenylethoxy]carbonyl]amino]-S-isoxazolyl][1,1′-biphenyl]-4-yl]-], the “toxicity leading to early termination of the study” value [4] is listed as “gall bladder toxicity and early signs of liver toxicity”.
In the case of `CC(C)(O)c1coc(S(=O)(=O)NC(=O)Nc2c3c(cc4c2CCC4)CCC3)c1` [MCC950, N-[[(1,2,3,5,6,7-hexahydro-s-indacen-4-yl)amino]carbonyl]-4-(1-hydroxy-1-methylethyl)-2-furansulfonamide], the “inhibition of NLRC4 inflammasome” value (NLRC4 inflammasome) is listed as “does not inhibit”, the “inhibition of AIM2 inflammasome” value (AIM2 inflammasome) is listed as “does not inhibit” and the “inhibition of NLRP1 inflammasome” value (NLRP1 inflammasome) is listed as “does not inhibit”. The “inhibition of TLR2 signaling” value (TLR2 signaling) was “does not inhibit” and the “NLRP3-induced IL-1β production” value (NLRP3) was “inhibits NLRP3-induced IL-1β production”.
In the case of `CC[C@H](C)[C@@H]([C@@H](CC(=O)N1CCC[C@H]1[C@H](OC)[C@@H](C)C(=O)N[C@H](C)[C@@H](O)c1ccccc1)OC)N(C)C(=O)[C@@H](NC(=O)[C@@H](NC)C(C)C)C(C)C` [MMAE, monomethyl auristatin E] (H-[NMeV]V[Dil][Dolaproine]-X1), the “MMAE concentrations giving potent growth inhibition and cell death” value (RAW264.7 (RAW) cells; free drug, about 5 days, FIG. 7) is reported as “above 1.1 nM”.
In the case of `CC[C@H](C)[C@@H]([C@@H](CC(=O)N1CCC[C@H]1[C@H](OC)[C@@H](C)C(=O)N[C@H](C)[C@@H](O)c1ccccc1)OC)N(C)C(=O)[C@@H](NC(=O)[C@H](C(C)C)N(C)C(=O)OCc1ccc(NC(=O)[C@H](CCCNC(N)=O)NC(=O)[C@@H](NC(=O)CCCCCN2C(=O)C=CC2=O)C(C)C)cc1)C(C)C` [vc-MMAE, maleimide-vc-PABC-MMAE] ({Hexanoyl(6-maleimido)}-V[Cit][PABC][NMeV]V[Dil][Dolaproine]-X1), the “fold less toxic than unmodified MMAE” value (RAW264.7 (RAW) cells; administered to cells as a free drug, FIG. 8A) is reported as “approximately 100 fold”.
